Results on 5 compounds are retold here after US20170190671A1, “BIS(ARYL)CATECHOL DERIVATIVES AS HERBICIDES” (E I DU PONT DE NEMOURS AND COMPANY, priority 2014, published 2017).

Each structure is given as a SMILES string.

Holding throughout (assay type): in vivo
For assay [1], the system named is mustard, black (black mustard, Brassica nigra). Kind of assay: Test F preemergence. As to conditions: 21 days, scale 0 to 100. An excerpt:
(§1) Seeds of plant species selected from bermudagrass (Cynodon dactylon), Surinam grass (Brachiaria decumbens), large (Lg) crabgrass (Digitaria sanguinalis), crabgrass, naked (naked crabgrass, Digitaria nuda), foxtail, green (green foxtail, Setaria viridis), johnsongrass (Sorghum halepense), kochia (Kochia scoparia), morningglory (pitted morningglory, Ipomoea lacunosa), nutsedge, purple (purple nutsedge, Cyperus rotundus), ragweed (common ragweed, Ambrosia elatior), mustard, black (black mustard, Brassica nigra), guineagrass (Panicum maximum), dallisgrass (Paspalum dilatatum), barnyardgrass (Echinochloa crus-galli), sandbur (southern sandbur, Cenchrus echinatus), sowthistle (common sowthistle, Sonchus oleraceous), Italian ryegrass (Lolium multiflorum), signalgrass (broadleaf signalgrass, Brachiaria platyphylla), dayflower (Virginia (VA) dayflower, Commelina virginica), bluegrass (annual bluegrass, Poa annua), quackgrass (Elytrigia repens), mallow (common mallow, Malva sylvestris), buckwheat, wild (wild buckwheat, Polygonum convolvulus), leafy spurge (Euphorbia esula), chickweed (common chickweed, Stellaria media), wild poinsettia (Euphorbia heterophylla), and pigweed (Amaranthus retroflexus) were planted into a blend of loam soil and sand and treated preemergence with test a chemical formulated in a non-phytotoxic solvent mixture which included a surfactant.
(§2) Treated plants and controls were maintained in a greenhouse for 21 days, after which time all species were compared to controls and visually evaluated. Plant response ratings, summarized in Table F, are based on a scale of 0 to 100 where 0 is no effect and 100 is complete control. A dash (-) response means no test result.

Assay [2] has as its system buckwheat, wild (wild buckwheat, Polygonum convolvulus). Kind of assay: Test F preemergence. As to conditions: 21 days, scale 0 to 100.
Text: as §1, §2

Assay [3] has as its system barnyardgrass (Echinochloa crus-galli). Kind of assay: Test F preemergence. As to conditions: 21 days, scale 0 to 100.
Text: as §1, §2

Assay [4] relates to foxtail, green (green foxtail, Setaria viridis). Briefly: Test F preemergence. The following applies: 21 days, scale 0 to 100.
Text: as §1, §2

Assay [5] has as its system sandbur (southern sandbur, Cenchrus echinatus). Kind of assay: Test F preemergence. As to conditions: 21 days, scale 0 to 100.
Text: as §1, §2

Assay [6] deals with Italian ryegrass (Lolium multiflorum). Kind of assay: Test F preemergence. The following applies: 21 days, scale 0 to 100.
Text: as §1, §2

The test system of assay [7] is johnsongrass (Sorghum halepense). Kind of assay: Test F preemergence. The following applies: 21 days, scale 0 to 100.
Text: as §1, §2

Assay [8] has as its system signalgrass (broadleaf signalgrass, Brachiaria platyphylla). Kind of assay: Test F preemergence. As to conditions: 21 days, scale 0 to 100.
Text: as §1, §2

Assay [9] concerns chickweed (common chickweed, Stellaria media). Briefly: Test F preemergence. As to conditions: 21 days, scale 0 to 100.
Text: as §1, §2

The test system of assay [10] is bluegrass (annual bluegrass, Poa annua). Briefly: Test F preemergence. The following applies: 21 days, scale 0 to 100.
Text: as §1, §2

The subject of assay [11] is ducksalad (Heteranthera limosa). Briefly: Test C flooded paddy. As to conditions: Flood, scale 0 to 100. From the text:
(§3) At time of treatment, test pots were flooded to 3 cm above the soil surface, treated by application of test compounds directly to the paddy water, and then maintained at that water depth for the duration of the test. Treated plants and controls were maintained in a greenhouse for 13 to 15 days, after which time all species were compared to controls and visually evaluated. […] A dash (-) response means no test result.

The next assay relates to rice (Oryza sativa). Briefly: Test C flooded paddy. As to conditions: Flood, scale 0 to 100.
Text: as §3

The test system of assay [12] is barnyardgrass (Echinochloa crus-galli). Kind of assay: Test C flooded paddy. As to conditions: Flood, scale 0 to 100.
Text: as §3

Assay [13] deals with sedge, umbrella (small-flower umbrella sedge, Cyperus difformis). Briefly: Test C flooded paddy. As to conditions: Flood, scale 0 to 100.
Text: as §3

For assay [14], the system named is cocklebur (common cocklebur, Xanthium strumarium). Briefly: Test E preemergence. As to conditions: scale 0 to 100. The gist of the method:
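Preemergence: seeds in silt loam treated with compound in non-phytotoxic solvent with surfactant. Postemergence: plants at 1- to 4-leaf stage (2–18 cm) in peat-based medium sprayed likewise. Greenhouse 14–21 days, then visual rating vs controls, 0 (no effect) to 100 (complete control).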

On to `N#Cc1cccc(Oc2ncc(Cl)cn2)c1Oc1ncc(Cl)cn1` [Compound 3, 2,3-bis[(5-chloro-2-pyrimidinyl)oxy]benzonitrile], for which the “Plant response rating, Mustard, Black” value in assay [1] (62 g ai/ha), in [1] (125 g ai/ha) and in [1] (250 g ai/ha) was 100 each time. Further, the “Plant response rating, Buckwheat, Wild” value in [2] (62 g ai/ha), in assay [2] (125 g ai/ha) and in assay [2] (250 g ai/ha) was 100 in each case. Besides, the “Plant response rating, Barnyardgrass” value in assay [3] (62 g ai/ha) is on record as 98; in [3] (125 g ai/ha) it was 100; in assay [3] (250 g ai/ha), 100. In addition, the “Plant response rating, Foxtail, Green” value in assay [4] (62 g ai/ha), in [4] (125 g ai/ha) and in assay [4] (250 g ai/ha) was 100 in each case. For the same compound, the “Plant response rating, Sandbur” value was 35 in assay [5] (62 g ai/ha), 100 in [5] (125 g ai/ha) and 100 in [5] (250 g ai/ha). For the same compound, the “Plant response rating, Ryegrass, Italian” value in [6] (62 g ai/ha) stood at 95; in assay [6] (125 g ai/ha), 100; in assay [6] (250 g ai/ha), 100. Further, the entries for the “Plant response rating, Johnsongrass” value in assay [7] (62 g ai/ha), in [7] (125 g ai/ha) and in assay [7] (250 g ai/ha) were 75, 100 and 100, respectively. The “Plant response rating, Signalgrass” value in assay [8] (62 g ai/ha), in assay [8] (125 g ai/ha) and in assay [8] (250 g ai/ha) was 100 in each case. Further, the “Plant response rating, Chickweed” value in [9] (62 g ai/ha), in assay [9] (125 g ai/ha) and in assay [9] (250 g ai/ha) was 100 each time. Moreover, the entries for the “Plant response rating, Bluegrass” value in [10] (62 g ai/ha), in assay [10] (125 g ai/ha) and in [10] (250 g ai/ha) were 80, 100 and 100, respectively.
On to `N#Cc1cccc(Oc2ncc(Cl)cn2)c1Oc1ncc(Br)cn1` [Compound 4, 2-[(5-bromo-2-pyrimidinyl)oxy]-3-[(5-chloro-2-pyrimidinyl)oxy]benzonitrile], for which the “Plant response rating, Ducksalad” value is given as 0 in assay [11] (31 g ai/ha), 40 in assay [11] (62 g ai/ha), 100 in assay [11] (125 g ai/ha) and 100 in assay [11] (250 g ai/ha). The “Plant response rating, Rice” value in the assay with rice (Oryza sativa) (31 g ai/ha) amounted to 0; with rice (Oryza sativa) (62 g ai/ha), 0; in the assay on rice (Oryza sativa) (125 g ai/ha) it was 0; with rice (Oryza sativa) (250 g ai/ha), 30. Further, the “Plant response rating, Barnyardgrass” value in assay [12] (31 g ai/ha) amounted to 0; in [12] (62 g ai/ha), 0; in assay [12] (125 g ai/ha) it was 20; in assay [12] (250 g ai/ha) it was 40. The “Plant response rating, Sedge, Umbrella” value is listed as 0 in [13] (31 g ai/ha), 0 in [13] (62 g ai/ha), 75 in [13] (125 g ai/ha) and 100 in assay [13] (250 g ai/ha).
`Clc1cnc(Oc2cccc(Br)c2Oc2ncc(Cl)cn2)nc1` [Compound 19, 2,2′-[[3-bromo-1,2-phenylene]bis(oxy)]bis[5-chloropyrimidine]]: the “Plant response rating, Cocklebur” value in assay [14] (16 g ai/ha), in [14] (62 g ai/ha) and in [14] (125 g ai/ha) was 0 each time.
For `Fc1cccc(Oc2ncc(Cl)cn2)c1Oc1ccc(Cl)nc1` [Compound 20], the “Plant response rating, Ducksalad” value in assay [11] (31 g ai/ha) is 0; in assay [11] (62 g ai/ha), 0; in [11] (125 g ai/ha), 45; in assay [11] (250 g ai/ha) it was 70. The “Plant response rating, Rice” value with rice (Oryza sativa) (31 g ai/ha), in the assay with rice (Oryza sativa) (62 g ai/ha), in the assay on rice (Oryza sativa) (125 g ai/ha) and with rice (Oryza sativa) (250 g ai/ha) was 0 in each case. Besides, the “Plant response rating, Barnyardgrass” value in assay [12] (31 g ai/ha), in [12] (62 g ai/ha), in assay [12] (125 g ai/ha) and in [12] (250 g ai/ha) was 0 throughout. Besides, the “Plant response rating, Sedge, Umbrella” value in assay [13] (31 g ai/ha) was found to be 0; in [13] (62 g ai/ha), 0; in [13] (125 g ai/ha), 65; in assay [13] (250 g ai/ha), 80.
Take `Fc1cccc(Oc2ncc(Cl)cn2)c1Oc1ncc(Cl)cn1` [Compound 21, 2,2′-[[3-fluoro-1,2-phenylene]bis(oxy)]bis[5-chloropyrimidine]]: the “Plant response rating, Cocklebur” value in assay [14] (31 g ai/ha) is 35; in assay [14] (62 g ai/ha), 40; in assay [14] (125 g ai/ha), 50.
